Reference: US9529006B1, “Method for direct detection of lipid binding agents in membrane” (KING SAUD UNIVERSITY, priority 2015, dated 2016)
Where a SMILES comes first, the peptide text is derived from it. [ ]: non-standard residue; d: D form. Phe(ol) = N[C@H](CO)Cc1ccccc1; Aib = CC(C)(N)C(=O)O

Experiments:
[1] = Electrophysiology, gA and Alm channel currents in lipid bilayer; conditions: for conductance events in channels in lipid bilayer: gA V=200 mV, Alm V=150 mV
Procedure: (§1) As defined herein, a liposome is a spherical vesicle having at least one lipid bilayer. The liposome can be used as a vehicle for administration of nutrients and pharmaceutical drugs. Liposomes can be prepared routinely by disrupting biological membranes (such as by sonication). Two different kinds of processes to address membrane effects of all three different classes of MAAs were developed. First, the electrophysiology (EP) trials were performed to record membrane currents across lipid bilayer membranes doped with AMPs (antimicrobial peptides) or CDs (chemotherapy drugs). This technique helps to detect the presence of any stable, semi-stable or transient structures that might be induced into the lipid bilayer membrane as a result of MAA-lipid coexistence. To understand the membrane effect of aptamers, fluorescence (FL) measurements on liposome bound aptamers were performed. This method helps to understand the general lipid membrane binding of aptamers.
The membrane effects of AMPs were tested using established electrophysiology technique. Here, gA (gramicidin A) monomer with 15 amino acids was used for constructing gA channels and Alm (alamethicin) monomers were used for constructing Alm channels in a bilayer constructed using lipid 1,2-Dioleoyl-sn-Glycero-3-Phosphocholine. For the membrane effects of CDs, planar lipid bilayers were formed by applying a lipid cocktail of Phosphoethanolamine: phosphatydyleserine: phosphatidylcholine (5:3:2, v/v/v)/n-decane using the painting method over a 150 μm septum of a bilayer cuvette. The aptamer-lipid binding aspects were addressed by preparing liposomes using liposome technology. The liposomes were prepared with 1,2-dipalmitoyl-sn-glycero-3-phosphatidylcholine (DPPC) and 1,2-dipalmitoyl-sn-glycero-3-phospho-L-serine (sodium salt) (DPPS). Buffer with the liposome-bound and unbound aptamers containing 6-carboxyfluorescein (6-FAM) fluorescent tag attached at the 3′ end of the DNA sequence was separated using standard binding assay. The solution with bound aptamers was then investigated for fluorescence quantification. The following examples will further illustrate the direct detection method (DDM).
Membrane currents across lipid bilayer membranes doped with antimicrobial peptides (AMPs) or chemotherapy drugs (CDs) were investigated. The pattern of the general time dependent ion pore conducting current fluctuations is MAA specific. The amplitude and stability of the current events are found to vary due to the differences in the structures of MAAs. Some ion pores conduct currents with constant amplitudes over a period of time considered as pore lifetime. While a few other pores are found to conduct currents with fluctuating amplitudes over their lifetimes.
The gA channel activity was recorded at V=200 mV and Alm at V=150 mV. Here IgA=29±2, 113±5, 243±9 and 386±10 pA respectively are the discrete current levels 0, 1, 2, 3, . . . , etc. in Alm channel. Traces representing gA and Alm channel activities in phospholipid bilayers were recorded at filter frequencies 2 kHz and 20 kHz, respectively. A lower filter frequency for traces representing gA channel activity is alright because of the channel's relatively higher stability. In (B) the point count plots of the current traces through gA and Alm channels peak at discrete values of conductance.
AMP gA is reported to induce conductance events that conducts constant current IgA pA over its lifetime τgA. At the formation and breaking of a gA channel the current undergoes transitions between 0→IgA pA and IgA→0 pA respectively. The current transitions between 0 ? IgA pA happen instantaneously that means current transitions take almost no time. Here, IgA is constant (˜in low range pA) for any gA channel but TO appears with all possible values within a range 0 to a very high value in ms order]. With varied number of amino acids in gA monomer the value of both IgA and τgA vary. Detailed analysis can be found in ref. [2-6]. […]

[2] = Electrophysiology, membrane currents across planar lipid bilayers doped with chemotherapy drugs; conditions: 90 μM, pH=5.7, V=100 mV
Procedure: The gA channel activity was recorded at V=200 mV and Alm at V=150 mV. […] Traces representing gA and Alm channel activities in phospholipid bilayers were recorded at filter frequencies 2 kHz and 20 kHz, respectively.

[3] = Fluorescence measurements on liposome bound aptamers, liposomes containing PS; format: binding; conditions: liposomes containing 10% PS (DPPC and DPPS 9:1); 6-FAM tagged aptamer
Procedure: as §1, with “This technique helps to detect the presence of any stable, semi-stable or transient structures that might be induced into the lipid bilayer membrane as a result of MAA-lipid coexistence.” left out, “This method helps to understand the general lipid membrane binding of aptamers.” left out
(§2) The membrane effects of AMPs were tested using established electrophysiology technique. […] The solution with bound aptamers was then investigated for fluorescence quantification. […]
(§3) The aptamer-lipid binding aspects were addressed by preparing liposomes using known liposome technology. […] The solution with bound aptamers was then investigated for fluorescence quantification.
(§4) Binding affinity and selectivity of designed DNA aptamers were measured. […] The fluorescence (FL) measured in relative fluorescence units (RFU) is plotted against the [DNA] aptamer concentration. […]

[4] = Fluorescence measurements on liposome bound aptamers, liposome containing only PC; format: binding; conditions: liposomes containing no PS
Procedure: as §1, with “This technique helps to detect the presence of any stable, semi-stable or transient structures that might be induced into the lipid bilayer membrane as a result of MAA-lipid coexistence.” left out, “This method helps to understand the general lipid membrane binding of aptamers.” left out
as §2, §3, §4

Molecule: CC(=O)NC(C)(C)C(=O)N1CCC[C@H]1C(=O)NC(C)(C)C(=O)N[C@@H](C)C(=O)NC(C)(C)C(=O)N[C@@H](C)C(=O)N[C@@H](CCC(N)=O)C(=O)NC(C)(C)C(=O)N[C@H](C(=O)NC(C)(C)C(=O)NCC(=O)N[C@@H](CC(C)C)C(=O)NC(C)(C)C(=O)N1CCC[C@H]1C(=O)N[C@H](C(=O)NC(C)(C)C(=O)NC(C)(C)C(=O)N[C@@H](CCC(=O)O)C(=O)N[C@@H](CCC(N)=O)C(=O)N[C@H](CO)Cc1ccccc1)C(C)C)C(C)C [Alm, alamethicin] (Ac-[Aib]P[Aib]A[Aib]AQ[Aib]V[Aib]GL[Aib]PV[Aib][Aib]EQ[Phe(ol)])
- discrete current level 0 in Alm channel ([1]; V=150 mV, level 0): 29±2 pA
- discrete current level 1 in Alm channel ([1]; V=150 mV, level 1): 113±5 pA
- discrete current level 2 in Alm channel ([1]; V=150 mV, level 2): 243±9 pA
- discrete current level 3 in Alm channel ([1]; V=150 mV, level 3): 386±10 pA
- conductance events in channels in lipid bilayer [1]: rectangular-shape conductance events

Molecule: COc1c(O[C@@H]2O[C@H](CO)[C@@H](O)[C@H](O)[C@H]2O)cc2c(c1OC)-c1ccc(SC)c(=O)cc1[C@@H](NC(C)=O)CC2 [TCC, thiocolchicoside]
- conductance events induced in lipid bilayer [2]: triangular-shaped conductance events

Molecule: SIIAp1: designed DNA aptamer, sequence (5′ → 3′) CAGAAAAAAAC (DNA, backbone and methylation of C not given here; further chemistry not fully specified)
- binding of aptamer with liposomes containing PS (fluorescence, RFU vs [DNA]) [3]: selective binding
- binding of aptamer with liposome containing only PC (fluorescence) [4]: low non-specific binding

Molecule: SIIAp2: designed DNA aptamer, sequence (5′ → 3′) CAGAAAAAAAT (DNA, backbone and methylation of C not given here; further chemistry not fully specified)
- binding of aptamer with liposomes containing PS (fluorescence, RFU vs [DNA]) [3]: selective binding

Molecule: gramicidin A [gA]
- conductance events in channels in lipid bilayer [1]: rectangular-shape conductance events
